# Experimental data: article PMC7244308 (Science Advances, 2020)
# Like-named read-outs stand apart in the source and are kept apart here.
# What was measured:
# [1] = molecular target: PFO (Clostridium perfringens, UniProt P0C2E9); experiment: biochemical; assay type: binding
# [2] = molecular target: T1, SLO (Streptococcus pyogenes serotype M1, UniProt P0C0I3); experiment: biochemical; assay type: binding
# [3] = molecular target: ILY (Streptococcus intermedius, UniProt Q9LCB8); experiment: biochemical; assay type: binding
# [4] = molecular target: SLY D4 (Streptococcus suis, UniProt Q55996); assay type: binding
# [5] = molecular target: SLY (Streptococcus suis, UniProt Q55996); assay type: binding
# [6] = molecular target: Ply (Streptococcus pneumoniae, UniProt Q7ZAK5); experiment: biochemical; assay type: binding
# [7] = molecular target: recombinant human I-domain (Homo sapiens, UniProt P11215); assay type: binding
# [8] = molecular target: T1, SLO; assay type: cell-based
# [9] = molecular target: LLO (Listeria monocytogenes serovar 1/2a, UniProt P13128); assay type: binding
# LLO, sequence (P13128 25-529 limits assumed): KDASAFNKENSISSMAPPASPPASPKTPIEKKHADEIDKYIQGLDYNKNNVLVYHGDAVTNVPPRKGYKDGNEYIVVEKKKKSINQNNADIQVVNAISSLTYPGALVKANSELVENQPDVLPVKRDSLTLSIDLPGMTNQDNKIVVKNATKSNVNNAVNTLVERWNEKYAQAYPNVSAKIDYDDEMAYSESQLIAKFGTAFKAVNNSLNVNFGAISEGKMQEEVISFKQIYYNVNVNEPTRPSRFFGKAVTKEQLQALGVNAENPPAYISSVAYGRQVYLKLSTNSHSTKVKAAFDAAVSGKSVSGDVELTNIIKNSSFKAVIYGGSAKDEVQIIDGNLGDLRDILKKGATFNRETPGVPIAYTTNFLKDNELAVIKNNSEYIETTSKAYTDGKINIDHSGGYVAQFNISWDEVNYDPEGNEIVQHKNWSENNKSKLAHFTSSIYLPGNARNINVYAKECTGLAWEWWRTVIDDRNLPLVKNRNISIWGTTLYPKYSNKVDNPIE
# Ply, sequence (Q7ZAK5 whole entry, looked up): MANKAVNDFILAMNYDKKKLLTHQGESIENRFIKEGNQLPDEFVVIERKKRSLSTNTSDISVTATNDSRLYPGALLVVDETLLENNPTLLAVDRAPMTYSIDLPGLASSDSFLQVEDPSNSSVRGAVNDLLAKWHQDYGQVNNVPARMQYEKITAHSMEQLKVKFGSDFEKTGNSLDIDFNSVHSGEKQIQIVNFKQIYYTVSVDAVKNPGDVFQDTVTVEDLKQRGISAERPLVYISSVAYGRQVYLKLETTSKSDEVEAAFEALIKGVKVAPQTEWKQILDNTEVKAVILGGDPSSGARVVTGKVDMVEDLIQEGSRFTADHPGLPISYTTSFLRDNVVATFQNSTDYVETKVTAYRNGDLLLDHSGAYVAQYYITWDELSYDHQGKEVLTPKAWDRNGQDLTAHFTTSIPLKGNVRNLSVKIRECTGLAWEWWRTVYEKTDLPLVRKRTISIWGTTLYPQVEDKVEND
# T1 sequence (P0C0I3 34-571 limits assumed): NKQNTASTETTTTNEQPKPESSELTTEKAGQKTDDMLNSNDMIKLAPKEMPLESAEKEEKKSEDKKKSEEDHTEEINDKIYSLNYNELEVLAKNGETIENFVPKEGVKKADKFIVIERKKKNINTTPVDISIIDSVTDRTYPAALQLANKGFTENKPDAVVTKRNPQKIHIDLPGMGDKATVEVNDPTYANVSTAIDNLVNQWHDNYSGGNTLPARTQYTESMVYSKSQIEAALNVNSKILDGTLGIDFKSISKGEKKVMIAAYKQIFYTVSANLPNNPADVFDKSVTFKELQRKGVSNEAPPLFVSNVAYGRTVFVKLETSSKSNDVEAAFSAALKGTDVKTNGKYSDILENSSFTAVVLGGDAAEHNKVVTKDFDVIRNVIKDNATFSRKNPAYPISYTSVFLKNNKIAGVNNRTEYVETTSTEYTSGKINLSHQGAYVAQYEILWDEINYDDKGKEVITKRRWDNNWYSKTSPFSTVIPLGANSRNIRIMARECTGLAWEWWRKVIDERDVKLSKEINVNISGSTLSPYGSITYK
# PFO, sequence (P0C2E9 29-500 limits assumed): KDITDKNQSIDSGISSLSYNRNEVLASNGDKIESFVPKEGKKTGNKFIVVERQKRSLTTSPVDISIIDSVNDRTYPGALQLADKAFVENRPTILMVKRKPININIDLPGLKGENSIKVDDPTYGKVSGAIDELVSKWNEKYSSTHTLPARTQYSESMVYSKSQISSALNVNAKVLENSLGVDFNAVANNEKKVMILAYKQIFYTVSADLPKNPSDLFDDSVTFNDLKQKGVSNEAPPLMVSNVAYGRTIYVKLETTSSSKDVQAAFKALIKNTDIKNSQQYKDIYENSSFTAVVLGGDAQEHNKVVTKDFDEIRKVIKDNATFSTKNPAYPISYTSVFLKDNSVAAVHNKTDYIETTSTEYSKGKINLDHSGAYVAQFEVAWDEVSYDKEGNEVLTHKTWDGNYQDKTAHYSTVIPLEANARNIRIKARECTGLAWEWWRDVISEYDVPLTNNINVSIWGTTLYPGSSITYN
# recombinant human I-domain, sequence (P11215 150-328): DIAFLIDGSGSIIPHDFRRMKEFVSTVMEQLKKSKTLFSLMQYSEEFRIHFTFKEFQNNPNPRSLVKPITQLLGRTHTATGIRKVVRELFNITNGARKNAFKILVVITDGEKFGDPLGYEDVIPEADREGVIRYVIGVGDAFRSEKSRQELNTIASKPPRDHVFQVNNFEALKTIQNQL
compound,measurement,setting,value
"CC(=O)N[C@H]1[C@H](O[C@H]2[C@@H](O)[C@@H](CO)O[C@@H](O[C@H]3[C@H](O)[C@@H](O)C(O)O[C@@H]3CO)[C@@H]2O)O[C@H](CO)[C@@H](O[C@@H]2O[C@H](CO)[C@H](O)[C@H](O)[C@H]2O)[C@@H]1O (mixture of isomers) [LNnT, lacto-N-neotetraose]",Kd,[1],2.8 µM
same,Kd,[2],0.00093 µM
same,Kd,[3],4.9 µM
"C[C@@H]1O[C@@H](O[C@H]2C(O)O[C@H](CO)[C@H](O)[C@@H]2O)[C@@H](O)[C@H](O)[C@@H]1O (stereo partly shown) [BGH di, blood group H antigen disaccharide]",Kd,[4],26 µM
same,Kd,[5],19 µM
same,Kd,[2],0.603 µM
O=C[C@H](O)[C@@H](O)[C@H](O[C@@H]1O[C@H](CO)[C@@H](O)[C@H](O)[C@H]1O)[C@H](O)CO [Cellobiose],Kd,[1]; KD,34 µM
CC(C)CCC[C@@H](C)[C@H]1CC[C@H]2[C@@H]3CC=C4C[C@@H](O)CC[C@]4(C)[C@H]3CC[C@]12C [Cholesterol],Kd,[6]; KD,1 µM
same,Kd,[1]; KD,0.296 µM
same,Kd,[2]; KD,0.189 µM
CC(=O)[C@H]1CC[C@H]2[C@@H]3CC=C4C[C@@H](O)CC[C@]4(C)[C@H]3CC[C@]12C [pregnenolone],Kd,[6],~0.0004 µM
same,binding in SPR drug library screen,[6],binds
same,binding in SPR drug library screen,[2],binds
"CC(=O)N[C@H]1[C@H]([C@H](O)[C@H](O)CO)O[C@@](O[C@H]2[C@@H](O)[C@@H](CO)O[C@@H](O[C@@H]([C@H](O[C@@H]3O[C@@H](C)[C@@H](O)[C@@H](O)[C@@H]3O)[C@H](C=O)NC(C)=O)[C@H](O)CO)[C@@H]2O)(C(=O)O)C[C@@H]1O [sLeX, sialyl-Lewis X]",Kd,[6]; KD,1.3 µM
same,Kd,[1]; KD,3.9 µM
same,Kd,[2]; KD,3.1 µM
same,Kd,[3]; KD,2.8 µM
"Ply: pneumolysin, CDC toxin from Streptococcus pneumoniae, recombinant His-tagged",Kd,[7],0.0223 µM
pregnenolone sulfate (sodium salt) [PS],competition with cholesterol (competitive SPR),[6],compete directly
same,competition with cholesterol (competitive SPR),[2],compete directly
same,effect on SLO hemolytic activity,[8],inhibit
same,competition with cholesterol (competitive SPR),[9],compete directly
